Results taken from patent US20160367578A1, “METHODS AND COMPOSITIONS FOR ERADICATING LEUKEMIC CELLS” (priority 2013, published 2016).

Legend:
normal bone marrow cells = assay: Co-culture viability with enoxolone, normal bone marrow cells (myeloid vs. non-myeloid); assay type: cell-based; set-up: dose or concentration left out as unconfirmed; conditions: […] μM, 20 hours
Procedure: (§1) Primary MLL-AF9^LKS acute myeloid leukemia cells (red bars) were co-cultured with normal BM mononuclear cells (blue bars). Cells in co-culture were exposed to enoxolone for 20 hours (at 0, 5, 20, 50, 100 and 200 μM) and then cell viability was analyzed by flow cytometry (live leukemia cells=GFP+/7AAD−; live normal cells=GFP−/7AAD−).
Cells in co-culture were exposed to enoxolone for 20 hours (at 0, 5, 20, 50, 100 and 200 μM).

[1] = tested on: Primary MLL-AF9 LKS acute myeloid leukemia cells; assay: Co-culture viability with enoxolone, leukemia cells (GFP+/7AAD-); assay type: cell-based; conditions: 20 hours, 0, 5, 20, 50, 100 and 200 μM
Procedure: as §1

Structure (SMILES): CC1(C)[C@@H](O)CC[C@]2(C)[C@H]3C(=O)C=C4[C@@H]5C[C@@](C)(C(=O)O)CC[C@]5(C)CC[C@@]4(C)[C@]3(C)CC[C@@H]12 [enoxolone, 18β-glycyrrhetinic acid]
- toxicity to normal non-myeloid cells (normal bone marrow cells): toxic to normal non-myeloid cells
- leukemia cell eradication in co-culture with normal BM mononuclear cells [1]: selective leukemia cell eradication
